Results on one compound are retold here after patent publication US20230330093A1, “APPLICATION OF NITROGEN-CONTAINING SATURATED HETEROCYCLIC COMPOUND” (SHANGHAI PHARMACEUTICALS HOLDING CO., LTD., priority 2020, published 2023).

This series deals with cynomolgus monkeys. Description: 4-week repeated-dose safety study: clinical observations, mortality, body weight. In kind it is in vivo. The note with it: for body weight gain: no statistical significance. On the procedure: The compound of Formula I was prepared and confirmed according to the method in CN103562191B. The 0.5% of sodium carboxymethyl cellulose (CMC-Na) was used as a vehicle. The compound of Formula I was stored at room temperature, protected from light and wetness. For cynomolgus monkey safety studies, the test substance was suspended in 0.5% CMC-Na at the relevant concentrations. The homogeneity, concentration and one week stability of prepared suspension was analyzed to ensure proper administration of the reported doses. The six month accelerated stability of active pharmaceutical ingredient (API) was tested by the inventor.
Healthy male and female cynomolgus monkeys aged 3-4 years were supplied by Hainan New Source Biotech Co. Ltd. (Hainan, China). The body weight range at the start of treatment was 3.2-5.8 kg for male and 2.5-3.7 kg for female. They were housed for a 36-day acclimation period before study. Once a day in the morning, animals eat and drink freely.
Mortality and clinical signs were evaluated daily from the beginning of the quarantine period. Each animal was examined at least twice daily for any change in behavior, reaction to treatment or illness after administration.
Observations included, but were not limited to the following: changes in skin and fur; eyes and mucous membranes; respiratory, circulatory, autonomic, central nervous systems and behavior patterns. Rectal temperature was measured before administration (twice), at 1 and 24 h after first administration, and before d26 administration and at 1 and 24 h after d26 administration. Body weight was measured every week. Food consumption was estimated for monkey every day. Ophthalmoscopy was conducted for the monkey study using a portable slit lamp (YZ2) and a direct ophthalmoscope (GFJY-01B).

Each structure is given as a SMILES string.

With `COC(=O)NCCCn1nc([C@@H](C)N(C(=O)[C@H]2CNCCO2)C2CC2)c2ccc(C)nc21` [compound of Formula I], for the setting “20, 100, 450 mg/kg/day for 4 weeks”, the “clinical signs of toxicity related to treatment in other animals” value is reported as “no apparent clinical signs of toxicity”. Moreover, the body weight gain runs as follows: (high dose (450 mg/kg/day) females, controls 3.2±0.2) 2.7±0.4; (high dose (450 mg/kg/day) males, controls 4.6±0.5) 4.1±0.5. For the same compound, the mortality entry (high dose (450 mg/kg/day), nasogastric, day23) is listed as “Treatment related early death occurred in one high dose female”.
